What was measured:
[1] = test system: mice subjected to the formalin test; assay: Formalin test (inflammatory pain model), pain behavior in mice; format: in vivo, mouse
Description: The formalin test, which is an inflammatory pain model and is commonly used as a neuropathic pain model in a broad sense, was used to evaluate the pain-inhibiting effect of disulfiram (DSF).
In the formalin test, each mouse was placed in a transparent container for 30 minutes for acclimation to the analysis environment. Thereafter, a test drug or a solvent control (a solution of 10% DMSO and 2% Tween-80) was administered intraperitoneally to each mouse, and 30 minutes later, 20 μL of 1% formalin was injected subcutaneously from the palmar surface of the right hind paw to observe pain behavior in each mouse. The duration (sec.) of paw lifting and paw licking was used as a measured value of intensity of pain.
The formalin test is one of the commonly used models that are used as pain models to evaluate analgesic effects. A biphasic pain-like behavior is observed in the formalin test; the first response appears within 5 minutes and disappears till 10 minutes after the administration of formalin, and the second response is a response that reappears within 10 to 15 minutes after the administration of formalin (FIG. 1A).
DSF is metabolized in the body to generate diethyldithiocarbamate (DDC). The analgesic effects of metal complexes of DDC, which are considered to generate DDC in the body as well as DSF, was evaluated by the formalin test. The formalin test was performed in the same manner as in the above-described section 1. except that a copper complex of DDC (Cu(DDC)2) and an iron(III) complex of DDC (Fe(DDC)3) were used as test drugs. Either of the complexes was administered to mice at a dose of 40 mg/kg.

[2] = test system: sciatic nerve ligation (CCI) mouse; assay: Sciatic nerve ligation (CCI) model, plantar test of pain threshold for heat; format: in vivo; details: 40 mg/kg intraperitoneally, plantar test 30 min after administration; p<0.01 (FIG. 2)
Source text: Since central sensitization was known to be involved in the second phase pain response in the formalin test, DSF was expected to also exert its effects on neuropathic pain. […] Thus, the sciatic nerve ligation (CCI) model, which is commonly used as a neuropathic pain mouse model, was used to evaluate the efficacy of DSF. In the sciatic nerve ligation (CCI) mouse group, a femoral region of each mouse was cut open and the muscle layer was removed to expose the sciatic nerve, and the sciatic nerve was ligated with 6-0 silk sutures at three positions spaced 1 mm apart, and the incision was then closed. In contrast, each mouse in the sham operation (Sham) group was subjected to the same operation till the muscle layer was removed, and the incision was then closed without ligating the exposed sciatic nerve. On one week postsurgery or later, the planter test was performed to evaluate the pain threshold for heat, which was a stimulus not associated with stimulant administration, in those mice. DSF was administered intraperitoneally to mice in the CCI DSF group at a dose of 40 mg/kg. The solvent control (a solution of 10% DMSO and 2% Tween-80) was administered instead of DSF to mice in the CCI control group. The plantar test was performed 30 minutes after administration.

SMILES: CCN(CC)C(=S)SSC(=S)N(CC)CC [DSF, tetraethylthiuram disulfide]
- analgesic effect (suppression of the second response) at 10 mg/kg ([1]; 10 mg/kg intraperitoneally, versus solvent control (FIG. 1C)): significant analgesic effects
- suppression of the second response (pain score) in the formalin test ([1]; 40 mg/kg intraperitoneally, 30 min before 1% formalin, p<0.001 (FIG. 1B)): strongly suppressed
- dose dependency of suppression of the second response relative to solvent control (100%) ([1]; DSF dose groups, intraperitoneal (FIG. 1C)): analgesic effects in a dose-dependent manner
- analgesic effect compared with existing analgesics (pregabalin, loxoprofen, aspirin), suppression of the second response ([1]; all drugs at a fixed dose of 40 mg/kg (FIG. 1D)): stronger analgesic effects than all of the tested existing analgesics
- sedative effect (behavior of treated mice) ([1]; mice in the formalin test after intraperitoneal administration): behaved more quietly
- reduction in pain threshold associated with sciatic nerve ligation (CCI) [2]: prevented to a significant degree

— patent US20210220320A1, “ANALGESIC AGENT AND SEDATIVE AGENT” (THE UNIVERSITY OF TOKYO, priority 2018, published 2021)
